Test [1] concerns the target T1, CD40–CD154 (CD40L) (Homo sapiens, UniProt P29965).
T1 construct: purchased Enzo Life Sciences
T1 sequence (P29965 116-261 limits assumed): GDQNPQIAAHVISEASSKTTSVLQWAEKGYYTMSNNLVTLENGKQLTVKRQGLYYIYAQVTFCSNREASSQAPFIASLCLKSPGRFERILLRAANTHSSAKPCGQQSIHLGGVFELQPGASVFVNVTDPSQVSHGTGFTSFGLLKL
The test is described as follows: cell-free ELISA-type binding inhibition assay, CD40–CD154. The conditions noted are these: for IC50: cell-free CD40–CD154 binding inhibition, read-out: CD40 IC50; for selectivity toward CD40–CD154 against all other PPIs tested: vs OX40–OX40L, BAFFR–BAFF, TNF-R1–TNF-α. An excerpt:
As a first assessment, the CD40–CD154 inhibitory activity of compounds 6–19 (Figure 2, Table 1) was quantified using a cell-free in vitro binding inhibition assay as described before. Data fitted with typical sigmoidal concentration dependence curves (log inhibitor versus response model in GraphPad Prism, Hill slope n = 1) are summarized in Figure 3A. […] Polymolecular conglomeration and/or aggregation is often a cause of promiscuous inhibition in screening assays. Therefore, just as in our previous work, we checked for this, and we confirmed for several compounds that inhibition due to aggregation is not the case by retesting inhibitory activity in the presence of a non-ionic detergent (Triton-X 100, 0.01%) as recommended for the detection of such effects.
Binding inhibition assays were performed in a 96-well cell-free format as described before. Briefly, microtiter plates (Nunc F Maxisorp, 96-well; Thermo Fisher Scientific, Waltham, MA, USA) were coated overnight at 4 °C with 100 μL/well of Fc-conjugated receptors diluted in PBS pH 7.2. This was followed by blocking with 200 μL/well of blocking solution (PBS pH 7.2, 0.05% Tween-20, 1% BSA) for 1 h at RT. Then, plates were washed twice using washing solution (PBS pH 7.4, 0.05% Tween-20) and tapped dry before the addition of the appropriate FLAG tagged ligands along with different concentrations of tested dyes diluted in binding buffer (100 mM HEPES, 0.005% BSA pH 7.2) to give a total volume of 100 μL/well. After 1 h incubation, three washes were conducted, and anti-FLAG HRP conjugate was used to detect the bound FLAG-tagged ligand. Plates were washed four times before the addition of 120 μL/well of HRP substrate TMB (3,3′,5,5′-tetramethylbenzidine) and kept in the dark for up to 15 min. The reaction was stopped using 30 μL of 1M H2SO4, and the absorbance value was read at 450 nm. The concentrations of receptors used were 0.3 μg/mL for CD40, TNF-R1, and BAFFR; 0.6 μg/mL for OX40. The concentrations of the ligands were fixed at 0.02 μg/mL for CD154 and TNF-α, 0.06 μg/mL for OX40L, and 0.03 μg/mL for BAFF. These values were selected following preliminary testing to optimize response (i.e., to produce a high-enough signal at conditions close to half-maximal response, EC50). […] To verify that inhibition is not due to colloidal aggregation, CD40 binding inhibition was also measured in the presence of the non-ionic detergent Triton-X 100 (0.01%), as recommended for the detection of such effects.
(§1) All binding inhibition and cell assays were tested in duplicate or triplicate per plates, and assays were performed as at least three independent experiments. As before, binding and cytotoxicity data were converted to percent inhibition and fitted with standard log inhibitor vs. normalized response models using nonlinear regression in GraphPad Prism (GraphPad, La Jolla, CA, USA) to establish half-maximal (median) inhibitory concentration (IC50) or median lethal concentration (LC50) values. Cell assay data were fitted with a similar model that also allowed for a variable slope using the log inhibitor vs. normalized response (variable slope) model from Prism with a Hill slope (n) shared across all compounds. Cell assays and draining lymph node data were analyzed by one-way repeated-measures analysis of variance (ANOVA) followed by Dunnett’s multiple comparison test as a post hoc test for individual differences using GraphPad Prism and a significance level of p < 0.05 for all comparisons.
Data are (counterclockwise) for human CD40–CD154 (CD40L) (A); OX40–OX40L (B); BAFFR–BAFF (C); and TNF-R1–TNFα (D) and were fitted with standard binding curves. Data are average ± SD (normalized to percent binding) for n = 3 independent experiments with duplicates for each condition.
In general terms: An ELISA detects its analyte on a solid surface through an enzyme-linked reagent.

For test [2], the system named is CD154-induced NF-κB activation in CD40 sensor cells. As to the kind of experiment: CD40 sensor cell assay (HEK Blue CD40, SEAP reporter). Format: cell-based, human. The conditions noted are these: for IC50: Homo sapiens, CD154 100 ng/mL, 24 h.
Description: As further confirmation of the inhibitory activity of our compounds, a cell-based assay was used with sensor cells (HEK Blue CD40) containing a secreted embryonic alkaline phosphatase (SEAP) reporter gene under the control of a promoter fused to a NF-κB binding site and transfected with CD40. […] For all tested compounds, the corresponding IC50 values are higher than those determined in the cell-free binding inhibition assay (Table 1) representing a loss of activity which is likely due to non-specific binding on account of the presence of proteins and cells in the assay, as well as hydrophobicity-related problems. Cytotoxicities were also evaluated in these same cells and at the same concentrations using a standard MTS assay to ensure that effects are present at non-toxic concentration levels.
CD40 expressing NF-κB sensor cells (HEK Blue, InvivoGen, San Diego, CA, USA) were used to assess the ability of the present compounds to block CD154-induced activation as described before. Briefly, cells were maintained in DMEM at 80% confluence for each experiment. Cells were trypsinized and re-suspended in the same medium without FBS and seeded on 96-well microtiter plates at a density of 50,000 cells/well in the absence and presence of various concentrations of compounds diluted in the same media. For ligand mediated stimulation, a concentration of recombinant human CD154 (100 ng/mL) found to induce an optimal response was maintained in the wells for this purpose. After 24 h of incubation at 37 °C, 40 μL supernatant of each well were taken and added to another 96-well microtiter plate containing 160 μL/well of QUANTI-Blue (InvivoGen). The level of SEAP was determined after 1 h of incubation at 37 °C by reading at 650 nm using a spectrophotometer. A monoclonal anti-human CD154 antibody (clone 40804, R&D Systems, Minneapolis, MN, USA) was used as a positive control at 240 nM concentration.
as §1
Figure 5 Inhibition of CD154-induced NF-κB activation in CD40 sensor cells by compounds 6, 14, 15, and 18 in a concentration-dependent manner. Tartrazine (TZ) and an anti-CD154 antibody (mAb; single dose, 240 nM) were included as negative and positive controls, respectively. Data are average ± SD (normalized to CD154-activated cells alone) for n = 2 independent experiments with duplicates for each condition.

Structures are written as SMILES.

Usually IC50 stands for the concentration at which inhibition is half-maximal. Turning to `O=C(Nc1ccc(-c2ccc(C(=O)Nc3cccc4cccc(S(=O)(=O)O)c34)cc2)cc1)c1ccc([N+](=O)[O-])cc1` [Compound 6, 8-(4′-(4-Nitrobenzamido)biphenyl-4-ylcarboxamido)naphthalene-1-sulfonic acid], the IC50 worked out at 0.087 µM in test [1] and 19.9 µM in test [2]. For the same compound, the “inhibition of CD154-induced NF-κB activation (qualitative)” value (shortened to “inhibition”) in test [2] was “concentration-dependent inhibition”.
Regarding `O=C(Nc1ccc(-c2ccc(C(=O)Nc3cccc4cccc(S(=O)(=O)O)c34)cc2)nc1)c1ccc([N+](=O)[O-])cc1` [Compound 18, 8-(4-(5-(4-Nitrobenzamido)pyridin-2-yl)benzamido)naphthalene-1-sulfonic acid], the IC50 in test [1] was determined as 1.34 µM. For the same compound, in test [2], the “inhibition” value is listed as “concentration-dependent inhibition” and the 50% inhibitory concentration (IC50) stood at 8.7 µM.
As for `COC(=O)c1ccc(-c2ccc(C(=O)Nc3ccc(-c4ccc(C(=O)Nc5cccc6cccc(S(=O)(=O)O)c56)cc4)cc3)cc2)cc1` [Compound 15, 8-(4′-(4′-(Methoxycarbonyl)-[1,1′-biphenyl]-4-carboxamido)-[1,1′-biphenyl]-4-carboxamido)naphthalene-1-sulfonic acid], in test [1], the half-maximal inhibitory concentration (IC50) came out at 0.019 µM and the “selectivity toward CD40–CD154 against all other PPIs tested” value was more than 30 fold. For the same compound, the “selectivity toward CD40–CD154 against all other PPIs tested” value in test [1] (listed as DRI-C21095) was “more than thirty-fold”. For the same compound, in test [2], the “inhibition” value was “concentration-dependent inhibition” and 6 µM corresponded to half-maximal inhibition (IC50).

These data come from publication PMC5978685, “Design, Synthesis, and Evaluation of Novel Immunomodulatory Small Molecules Targeting the CD40–CD154 Costimulatory Protein-Protein Interaction” (Molecules : A Journal of Synthetic Chemistry and Natural …, 2018).
